Measurements from PMC11310081, “Deep-learning-enabled antibiotic discovery through molecular de-extinction” (Nature Biomedical Engineering, 2024).
≈ marks a conversion by molar mass, not a printed value. Entries after “also recorded” stand apart in the source; their conditions may differ. Peptide text beside a SMILES is read from it.

What was measured:
E. coli AIC221 = type: cell-based, Escherichia coli; conditions: AIC221, 20 h
Outline: (§1)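 Strains, plated on LB or Pseudomonas isolation agar, were subcultured 1:100 and grown at 37 °C into logarithmic phase before peptide dilutions (1–64 μmol l^−1) were applied. Absorbance at 600 nm gave growth; three biological replicates.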

E. coli ATCC 11775 = type: cell-based, Escherichia coli; conditions: ATCC 11775, 20 h
Outline: as §1

S. aureus ATCC 12600 = type: cell-based, Staphylococcus aureus; conditions: ATCC 12600, 20 h
Text: (§2) The following Gram-negative bacteria were used in our study: A. baumannii ATCC 19606, E. coli ATCC 11775, E. coli AIC221 (E. coli MG1655 phnE_2::FRT), E. coli AIC222 (E. coli MG1655 pmrA53 phnE_2::FRT (colistin resistant)), K. pneumoniae ATCC 13883, P. aeruginosa PAO1 and P. aeruginosa PA14. The following Gram-positive bacteria were also used in our study: S. aureus ATCC 12600, S. aureus ATCC BAA-1556 (methicillin-resistant strain), E. faecalis ATCC 700802 (vancomycin-resistant strain) and E. faecium ATCC 700221 (vancomycin-resistant strain). Bacteria were grown from frozen stocks and plated on Luria–Bertani (LB) or Pseudomonas isolation agar plates (P. aeruginosa strains) and incubated overnight at 37 °C. After the incubation period, a single colony was transferred to 5 ml of LB medium, and cultures were incubated overnight (16 h) at 37 °C. The following day, an inoculum was prepared by diluting the overnight cultures 1:100 in 5 ml of the respective media and incubating them at 37 °C until bacteria reached logarithmic phase (OD600 = 0.3–0.5).
(§3) The in vitro antimicrobial activity of the peptides was assessed by using the broth microdilution assay. […] Aqueous solutions of the peptides were added to the plate at concentrations ranging from 1 to 64 μmol l^−1. […] The optical density of the plates was measured at 600 nm using a spectrophotometer. All assays were done as three biological replicates.

[1] = test system: S. aureus ATCC BAA-1556 (methicillin-resistant strain); type: cell-based, Staphylococcus aureus; conditions: ATCC BAA-1556, 20 h
Text: as §2, §3

[2] = test system: E. faecalis ATCC 700802 (vancomycin-resistant strain); type: cell-based, Enterococcus faecalis; conditions: ATCC 700802, 20 h
Text: as §2
as §3, with “All assays were done as three biological replicates.” left out

[3] = test system: E. faecium ATCC 700221 (vancomycin-resistant strain); type: cell-based, Enterococcus faecium; conditions: ATCC 700221, 20 h
Outline: as §1

A. baumannii ATCC 19606 = assay: Skin abscess infection mouse model; type: in vivo, CD-1 mice; conditions: for bacterial count, skin abscess (Panel 6b): CD-1 mice; for Anti-infective activity in skin abscess model, in words: single dose at MIC, compared with untreated control and polymyxin B, n = 6
Description: A. baumannii ATCC 19606 cells were grown in LB medium to an OD600 = 0.5. Cells were washed twice with sterile phosphate-buffered saline (PBS) (pH 7.4, 13,000 r.p.m. for 2 min) and resuspended to a final concentration of 10^6 (A. baumannii cells) colony-forming units per millilitre (c.f.u. ml^−1). Six-week-old female CD-1 mice from Charles River (stock number 18679700-022) were anaesthetized with isoflurane, and their backs were sterilized and shaved. A superficial linear skin abrasion was made with a needle to damage the stratum corneum and upper layer of the epidermis. An aliquot of 20 μl containing the bacterial load resuspended in PBS was inoculated over the scratched area. Two hours after the infection, peptides diluted in water at their MIC value were administered to the infected area, and the untreated mice were inoculated with the same volume of deionized water. Mice were euthanized, and the area of scarified skin was excised 2 days and 4 days post infection, homogenized using a bead beater for 20 min (25 Hz) and then serially diluted tenfold for quantification of colony-forming units. This quantitative method was used as it has been established to accurately reflect the number of bacteria present in a given infected area. MacConkey agar plates were used as A. baumannii colonies appear purple in this medium and can easily be distinguished from other strains. The experiments were performed with six mice per group. All experiments were performed blindly, and no animal subjects were excluded from the analysis. The skin abscess infection mouse model was approved by the University Laboratory Animal Resources from the University of Pennsylvania (protocol 806763). Statistical significance was determined using one-way analysis of variance (ANOVA) followed by Dunnett’s test in log10-transformed data to mitigate the effect of outliers; P values are presented for each group, with all groups being compared to the untreated control group.

K. pneumoniae ATCC 13883 = type: cell-based, Klebsiella pneumoniae; conditions: ATCC 13883, 20 h
Text: as §2, §3

[4] = A. baumannii ATCC 19606, day 2, replicate 1
[5] = A. baumannii ATCC 19606, day 2, replicate 2
[6] = A. baumannii ATCC 19606, day 2, replicate 3
[7] = A. baumannii ATCC 19606, day 2, replicate 4
[8] = A. baumannii ATCC 19606, day 2, replicate 5
[9] = A. baumannii ATCC 19606, day 2, replicate 6
[10] = A. baumannii ATCC 19606, day 4, replicate 1
[11] = A. baumannii ATCC 19606, day 4, replicate 2
[12] = A. baumannii ATCC 19606, day 4, replicate 3
[13] = A. baumannii ATCC 19606, day 4, replicate 4
[14] = A. baumannii ATCC 19606, day 4, replicate 5
[15] = A. baumannii ATCC 19606, day 4, replicate 6

| SMILES | Minimal inhibitory concentration, E. coli AIC221 (E. coli AIC221) [µmol/L] | Minimal inhibitory concentration, E. coli ATCC11775 (E. coli ATCC 11775) [µmol/L] | Minimal inhibitory concentration, S. aureus ATCC12600 (S. aureus ATCC 12600) [µmol/L] | Minimal inhibitory concentration, S. aureus ATCC BAA-1556-MRSA [1] [µmol/L] | Minimal inhibitory concentration, E. faecalis ATCC700802-VRE [2] [µmol/L] | Minimal inhibitory concentration, E. faecium ATCC700221-VRE [3] [µmol/L] | bacterial count, skin abscess (Panel 6b) (A. baumannii ATCC 19606; [4]) | bacterial count, skin abscess (Panel 6b) (A. baumannii ATCC 19606; [5]) | bacterial count, skin abscess (Panel 6b) (A. baumannii ATCC 19606; [6]) | bacterial count, skin abscess (Panel 6b) (A. baumannii ATCC 19606; [7]) | bacterial count, skin abscess (Panel 6b) (A. baumannii ATCC 19606; [8]) | bacterial count, skin abscess (Panel 6b) (A. baumannii ATCC 19606; [9]) | bacterial count, skin abscess (Panel 6b) (A. baumannii ATCC 19606; [10]) | bacterial count, skin abscess (Panel 6b) (A. baumannii ATCC 19606; [11]) | bacterial count, skin abscess (Panel 6b) (A. baumannii ATCC 19606; [12]) | bacterial count, skin abscess (Panel 6b) (A. baumannii ATCC 19606; [13]) | bacterial count, skin abscess (Panel 6b) (A. baumannii ATCC 19606; [14]) | bacterial count, skin abscess (Panel 6b) (A. baumannii ATCC 19606; [15]) | Anti-infective activity in skin abscess model, in words (A. baumannii ATCC 19606) | Minimal inhibitory concentration, K. pneumoniae ATCC133883 (K. pneumoniae ATCC 13883) [µmol/L] |
| --- | --- | --- | --- | --- | --- | --- | --- | --- | --- | --- | --- | --- | --- | --- | --- | --- | --- | --- | --- | --- |
| CC[C@H](C)[C@H](N)C(=O)N[C@@H](Cc1ccccc1)C(=O)N[C@@H](CC(C)C)C(=O)N[C@@H](Cc1c[nH]cn1)C(=O)N[C@@H](CC(C)C)C(=O)N[C@@H](CCCCN)C(=O)N[C@H](C(=O)N[C@@H](CC(C)C)C(=O)N[C@@H](CCCCN)C(=O)N[C@H](C(=O)N[C@H](C(=O)N[C@@H](CCCNC(=N)N)C(=O)N[C@@H](CC(C)C)C(=O)N[C@@H](CC(C)C)C(=O)O)[C@@H](C)CC)[C@@H](C)CC)[C@@H](C)CC [Elephasin-2] (H-IFLHLKILKIIRLL-OH; N-terminus and C-terminus assumed) | 2 (≈ 3.47 µg/mL) | 16 (≈ 27.7 µg/mL) | 1 (≈ 1.73 µg/mL) | 1 (≈ 1.73 µg/mL) | 8 (≈ 13.9 µg/mL) | 1 (≈ 1.73 µg/mL) | 200000 | 200000 | 8000000 | 4000000 | 200000 | 400000 | 40000 | 20000 | 800000 | 800000 | 200 | 200 | comparable to that of the widely used antibiotic polymyxin B; also recorded: inhibited the proliferation of the infection for up to 4 days after treatment; also recorded: cleared the infection in some of the mice | – |
| CC[C@H](C)[C@H](NC(=O)[C@H](CO)NC(=O)[C@H](CCCNC(=N)N)NC(=O)[C@H](C)NC(=O)[C@H](Cc1c[nH]cn1)NC(=O)[C@H](CC(C)C)NC(=O)[C@H](CS)NC(=O)[C@H](C)NC(=O)[C@@H](N)CCCNC(=N)N)C(=O)N[C@@H](C)C(=O)N[C@@H](CCCNC(=N)N)C(=O)N[C@@H](CC(C)C)C(=O)N[C@@H](Cc1c[nH]cn1)C(=O)N[C@@H](CCCCN)C(=O)N[C@@H](CCCNC(=N)N)C(=O)N[C@@H](Cc1c[nH]c2ccccc12)C(=O)N[C@@H](CCCNC(=N)N)C(=O)N1CCC[C@H]1C(=O)N[C@H](C(=O)N[C@@H](Cc1c[nH]cn1)C(=O)N[C@@H](CCC(N)=O)C(=O)NCC(=O)N[C@@H](CC(C)C)C(=O)NCC(=O)N[C@@H](CC(C)C)C(=O)N[C@@H](CCCCN)C(=O)O)C(C)C [Mammuthusin-2] (H-RACLHARSIARLHKRWRPVHQGLGLK-OH; N-terminus and C-terminus assumed) | – | – | – | – | – | – | 600000 | 400000 | 800000 | 200000 | 4000000 | 1e+007 | 200000 | 200000 | 800000 | 1200000 | 20000 | 20000 | inhibited the proliferation of the infection for up to 4 days after treatment | – |
| CC[C@H](C)[C@H](NC(=O)[C@@H](N)CC(C)C)C(=O)N[C@H](C(=O)N[C@@H](CS)C(=O)N[C@@H](Cc1ccccc1)C(=O)N[C@@H](Cc1ccccc1)C(=O)N[C@@H](CCCNC(=N)N)C(=O)N[C@@H](CCC(N)=O)C(=O)N[C@@H](CC(C)C)C(=O)N[C@@H](CCCCN)C(=O)N[C@@H](Cc1ccccc1)C(=O)N[C@@H](Cc1c[nH]cn1)C(=O)N[C@@H](Cc1ccccc1)C(=O)O)C(C)C [Megalocerin-1] (H-LIVCFFRQLKFHF-OH; N-terminus and C-terminus assumed) | – | – | – | – | – | 8 (≈ 13.6 µg/mL) | 800000 | 2000000 | 2000000 | 800000 | 600000 | 1000000 | 1200000 | 1000000 | 400000 | 400000 | 1000000 | 400000 | inhibited the proliferation of the infection for up to 4 days after treatment | 64 (≈ 109 µg/mL) |
| CC(C)C[C@H](NC(=O)CNC(=O)[C@H](CCCNC(=N)N)NC(=O)[C@H](CCCCN)NC(=O)[C@H](CCCNC(=N)N)NC(=O)[C@@H](N)CCCCN)C(=O)N[C@@H](CCCCN)C(=O)N[C@@H](CC(C)C)C(=O)N[C@@H](C)C(=O)N[C@H](C(=O)N[C@@H](C)C(=O)N[C@@H](CC(C)C)C(=O)N[C@@H](CO)C(=O)N[C@@H](CC(C)C)C(=O)N[C@@H](CC(N)=O)C(=O)N[C@@H](CC(N)=O)C(=O)N[C@@H](CCCCN)C(=O)N[C@@H](Cc1ccccc1)C(=O)O)[C@@H](C)O [Mylodonin-2] (H-KRKRGLKLATALSLNNKF-OH; N-terminus and C-terminus assumed) | – | – | – | – | – | – | 200000 | 200000 | 600000 | 200000 | 400000 | 400000 | 2000 | 2000 | 60000 | 80000 | 200 | 200 | comparable to that of the widely used antibiotic polymyxin B; also recorded: inhibited the proliferation of the infection for up to 4 days after treatment; also recorded: cleared the infection in some of the mice | – |
